The record followed here is patent US20260027071A1, “COMPOSITION FOR PROMOTING COLLAGEN PRODUCTION COMPRISING AMIDATED AMINO ACID” (KYUNGPOOK NATIONAL UNIVERSITY INDUSTRY-ACADEMIC COOPERATION …, priority 2022, published 2026).

The subject of data set [1] is Human dermal fibroblasts (HDF). Description: Cell viability / proliferation (MTT assay) in human dermal fibroblasts. The note with it: for cell proliferation effect of TGF-β1: HDF, analog combined with TGF-β1 (FIG. 7c); for cell viability: HDF treated at 1 mM, result in words. (In general: Tetrazolium assays rely on reduction of a dye to a coloured formazan, in cell work by metabolically active cells.)
Procedure: Human dermal fibroblasts (HDF) extracted from adult skin were obtained from Cascade Biologics (Portland, OR, USA), and human articular chondrocytes (HAC), human follicle dermal papilla cells (HFCPC), human aortic endothelial cells (HAoEC), and human osteoblasts (HOB) were obtained from PromoCell (Heidelberg, Germany). The cells were cultured in a closed incubator at 37° C. in humidified air comprising 5% CO2. The growth medium for HDF consisted of Iscove's Modified Dulbecco's Medium (IMDM) (Gibco BRL, Grand Island, NY, USA) supplemented with 10% fetal bovine serum (Hyclone, South Logan, UT) and 1% antibiotics (100 U·mL^−1 penicillin, 0.1 mg·mL^−1 streptomycin).
The cell viability was evaluated using the MTT assay. Briefly, HDF (1×10^4 cells per well), HAC (5×10^3 cells per well), HFDPC (1×10^4 cells per well), HAoEC (5×10^3 cells per well), and HOB (2×10^3 cells per well) were cultured in growth media in a 96-well culture plate for 24 hours, followed by treatment with each drug for 48 hours. After discarding the media, the cells were incubated at 37° C. for 2 hours in fresh growth media (100 μL) containing 1 mg·mL^−1 MTT (Amresco, Solon, OH, USA). The media was removed by aspiration, and the formazan dye accumulated inside the cells was dissolved in 100 μL of dimethyl sulfoxide. The absorbance of the solution was measured at 570 nm using a Spetrostar Nano microplate reader (BMG LABTECH GmbH, Ortenberg, Germany).

In data set [2] the test system is Human dermal fibroblasts (HDF). Description: Collagen protein in conditioned media (Sircol Collagen Assay) of human dermal fibroblasts. The class given is cell-based. The following applies: for change in collagen production induced by individual treatment / change in collagen production induced by combined treatment with glycinamide: FIG. 7b; for change in collagen production induced by individual treatment: concentration not given; for change in collagen production induced by combined treatment with glycinamide: ascorbic acid analog combined with glycinamide; for collagen production (collagen levels secreted into the media): HDF treated at 1 mM, result in words. As for the experimental part:
The collagen protein levels in the conditioned media were evaluated using the Sircol™ Collagen Assay (Biocolor, Antrim, UK) according to the manufacturer's instructions. […] After discarding the media, the cells were washed with 500 μL of phosphate-buffered saline (PBS), then incubated in 1 mL of serum-free media for another 24 hours. A 1.0 mL media sample (either conditioned media or fresh media as a negative control) was transferred to a microcentrifuge tube, mixed with 100 μL of collagen isolation and concentration reagent, and incubated overnight at 4° C. The samples were centrifuged at 13,000×g for 10 minutes at 4° C., and the supernatant was carefully removed using a pipette without disturbing the pellet. Each tube was then added with 500 μL of Sircol dye reagent, inverted five times, and shaken at room temperature for 30 minutes. After centrifugation, the supernatant was discarded, and the pellet was washed with 500 μL of cold acid-salt washing reagent, followed by another centrifugation step. The pellet was then dissolved in 250 μL of alkali reagent, and a 200 μL portion was transferred to a 96-well plate. The optical density of the solution was read at 555 nm using a Spectrostar Nano microplate reader (BMG LABTECH GmbH, Ortenberg, Germany).

The test system of another data set is human dermal fibroblasts. Description: Wound healing (wound closure) assay, Oris cell migration kit. In kind it is cell-based. The following applies: HDF. Here is the method:
Wound closure analysis was performed using the Oris™ Universal Cell Migration Assembly kit (Platinus Technologies, WI, USA) according to the manufacturer's instructions. The Oris™ stoppers were inserted into each well of the Oris™-compatible 96-well plate, and the plate was inverted to check for complete stopper attachment. A suspension of human dermal fibroblasts in IMDM was added to each well (1×10^4 cells in 100 μL per well) and incubated for 12 hours to allow cell attachment. Then, the stoppers were removed using the stopper tool, and the medium was aspirated using a pipette. The wells were gently washed with 100 μL PBS to remove unattached cells, and the attached cells were treated with drugs in 100 μL culture medium for the specified time, respectively. Images of the wounds were obtained using a phase-contrast microscope (Eclipse TS 100, Nikon Instruments Inc., Melville, NY, USA). The wound areas in the images were quantified using the NIH Image J program. Wound closure (%) was calculated using the following equation: Wound closure (%)=[(A0−At)/A0]×100, where A0 is the area of the original wound and At is the wound area measured at the specified time.

“Also recorded” adds a separate entry of the source. Peptide text beside a SMILES is read from it.

As to `O=C1O[C@H]([C@@H](O)CO)C(O)=C1O[C@H]1O[C@H](CO)[C@@H](O)[C@H](O)[C@H]1O` [AG, ascorbyl 2-O-glucoside, reference compound], the “cell proliferation effect of TGF-β1” value in data set [1] is “significantly reduced”. In data set [2] (HDF), the “change in collagen production induced by individual treatment” value (“change … by individual treatment” below) was 27.2% and the “change in collagen production induced by combined treatment with glycinamide” value (from here on “change … with glycinamide”) worked out at 123.6%. The wound closure entry with human dermal fibroblasts (early stage (24 hours)) was “slightly promoted wound closure”. The wound closure entry in the data set on human dermal fibroblasts (later stages (36 and 48 hours)) is “inhibited”.

In the case of `CCCCCCCCC(CCCCCC)C(=O)OC[C@H](OC(=O)C(CCCCCC)CCCCCCCC)[C@H]1OC(=O)C(OC(=O)C(CCCCCC)CCCCCCCC)=C1OC(=O)C(CCCCCC)CCCCCCCC` (stereo partly drawn) [ATI, ascorbyl tetraisopalmitate, reference compound], the “cell proliferation effect of TGF-β1” value in data set [1] is recorded as “significantly reduced”. Also, the “change … by individual treatment” value in data set [2] (HDF) came to 25.5%. Besides, in data set [2] (HDF), the “change … with glycinamide” value came out at 124.6%. The wound closure result is “slightly promoted wound closure” in the data set on human dermal fibroblasts (early stage (24 hours)); “inhibited” in the data set on human dermal fibroblasts (later stages (36 and 48 hours)).

With `O=C1O[C@H]([C@@H](O)CO)C([O-])=C1OP(=O)([O-])[O-].O=C1O[C@H]([C@@H](O)CO)C([O-])=C1OP(=O)([O-])[O-].[Mg+2].[Mg+2].[Mg+2]` [MAP, Magnesium ascorbyl phosphate, reference compound], in data set [2] (HDF), the “change … by individual treatment” value is given as 25.3% and the “change … with glycinamide” value is 118.4%. Also, the “further enhancement of wound closure by combined treatment with glycinamide” value in the data set on human dermal fibroblasts (analog combined with glycinamide) is given as “further enhanced”. In addition, the wound closure entry in the data set with human dermal fibroblasts (treated alone, up to 48 hours (FIG. 8b)) is on record as “promoted wound closure to a similar extent as ascorbic acid”.

Regarding `CC(=O)NCC(=O)O` [N-acetyl glycine, reference compound], in data set [2], the “collagen production (collagen levels secreted into the media)” value is listed as “did not affect collagen production”.

For the molecule `C[C@H](N)C(N)=O.Cl` [alaninamide, L-Alaninamide HCl], the “collagen production (collagen levels secreted into the media)” value in data set [2] is given as “enhanced the collagen levels”.

`Cl.Cl.N=C(N)NCCC[C@H](N)C(N)=O` [argininamide, L-Argininamide diHCl]: the “collagen production (collagen levels secreted into the media)” value in data set [2] is recorded as “enhanced the collagen levels”.

Take `Cl.NC(=O)C[C@H](N)C(N)=O` [asparaginamide, L-Asparaginamide HCl]: the “collagen production (collagen levels secreted into the media)” value in data set [2] was “no significant effect”.

For `Cl.NC(=O)[C@@H](N)CC(=O)O` [aspartic acid α-amide, L-Aspartic acid α-amide HCl], in data set [1], the cell viability result is reported as “reducing effect”. In data set [2], the “collagen production (collagen levels secreted into the media)” value is given as “no significant effect”.

On to `Cl.NC(=O)[C@@H](N)CS` [cysteinamide, L-Cysteinamide HCl], for which, in data set [2], the “collagen production (collagen levels secreted into the media)” value is “enhanced the collagen levels”.

Consider `NC(=O)[C@@H](N)CCC(=O)O` [glutamic acid α-amide, L-Glutamic acid α-amide], for which the “collagen production (collagen levels secreted into the media)” value in data set [2] was “enhanced the collagen levels”.

On to `Cl.NC(=O)CC[C@H](N)C(N)=O` [glutaminamide, L-Glutaminamide HCl], for which the “collagen production (collagen levels secreted into the media)” value in data set [2] is recorded as “enhanced the collagen levels”.

`NC(=O)CC[C@H](N)C(=O)O` [glutamine, L-Glutamine, reference compound]: the “collagen production (collagen levels secreted into the media)” value in data set [2] was “increased collagen”.

For `CCOC(=O)CN.Cl` [glycine ethyl ester, glycine ethyl ester HCl, reference compound], the “collagen production (collagen levels secreted into the media)” value in data set [2] is listed as “did not affect collagen production”.

In the case of `COC(=O)CN.Cl` [glycine methyl ester, glycine methyl ester HCl, reference compound], the “collagen production (collagen levels secreted into the media)” value in data set [2] is reported as “somewhat reducing effect”.

In the case of `NCC(=O)O` [glycine, Glycine, reference compound], the “collagen production (collagen levels secreted into the media)” value in data set [2] was “most effectively increased collagen; also recorded: enhanced collagen production”. Further, the collagen production entry in data set [2] (HDF, 3 and 5 mM) is listed as “significantly reduced”.

Regarding `NCC(=O)NCC(=O)O` [glycyl glycine, reference compound] (H-Gly-Gly-OH), in data set [2], the “collagen production (collagen levels secreted into the media)” value is “did not affect collagen production”.

On to `NCC(=O)NCC(=O)O` [glycylglycine] (H-Gly-Gly-OH), for which the “collagen production (collagen levels secreted into the media)” value in data set [2] is recorded as “promoted collagen production”. Besides, the collagen production result in data set [2] (HDF, 0.25 mM) is on record as “increased collagen production”; in data set [2] (HDF, 1-2 mM) it was “greatest enhancement of collagen production”; in data set [2] (HDF, 3 and 5 mM) it was “slightly reduced”.

For the molecule `Cl.NC(=O)[C@@H](N)Cc1c[nH]cn1` [histidinamide, L-Histidinamide HCl], the “collagen production (collagen levels secreted into the media)” value in data set [2] is “no significant effect”.

Turning to `CC[C@H](C)[C@H](N)C(N)=O.Cl` [isoleucinamide, L-Isoleucinamide HCl], the “collagen production (collagen levels secreted into the media)” value in data set [2] is given as “enhanced the collagen levels”.

`CC[C@H](C)[C@H](N)C(=O)O` [isoleucine, L-Isoleucine, reference compound]: the “collagen production (collagen levels secreted into the media)” value in data set [2] was “increased collagen”.

For the molecule `CC(C)C[C@H](N)C(N)=O.Cl` [leucinamide, L-Leucinamide HCl], the “collagen production (collagen levels secreted into the media)” value in data set [2] is given as “enhanced the collagen levels”.

`CC(C)C[C@H](N)C(=O)O` [leucine, L-Leucine, reference compound]: the “collagen production (collagen levels secreted into the media)” value in data set [2] was “increased collagen”.

As to `Cl.Cl.NCCCC[C@H](N)C(N)=O` [lysinamide, L-Lysinamide diHCl], the cell viability result in data set [1] is recorded as “reducing effect”. Moreover, the “collagen production (collagen levels secreted into the media)” value in data set [2] was “no significant effect”.

As for `CSCC[C@H](N)C(N)=O.Cl` [methioninamide, L-Methioninamide HCl], the “collagen production (collagen levels secreted into the media)” value in data set [2] is “enhanced the collagen levels”.

As to `Cl.NC(=O)[C@@H](N)Cc1ccccc1` [phenylalaninamide, L-Phenylalaninamide HCl], in data set [2], the “collagen production (collagen levels secreted into the media)” value is reported as “enhanced the collagen levels”.

Turning to `Cl.NC(=O)[C@@H]1CCCN1` [prolinamide, L-Prolinamide HCl], in data set [2], the “collagen production (collagen levels secreted into the media)” value is given as “enhanced the collagen levels”.

On to `O=C(O)[C@@H]1CCCN1` [proline, L-Proline, reference compound], for which the “collagen production (collagen levels secreted into the media)” value in data set [2] is on record as “increased collagen”.

For `Cl.NC(=O)[C@@H](N)CO` [serinamide, L-Serinamide HCl], the “collagen production (collagen levels secreted into the media)” value in data set [2] is “no significant effect”.

As to `C[C@@H](O)[C@H](N)C(N)=O.Cl` [threoninamide, L-Threoninamide HCl], the “collagen production (collagen levels secreted into the media)” value in data set [2] is reported as “enhanced the collagen levels”.

As for `Cl.NC(=O)[C@@H](N)Cc1c[nH]c2ccccc12` [tryptophanamid, L-Tryptophanamide HCl], the “collagen production (collagen levels secreted into the media)” value in data set [2] is “no significant effect”.

For `Cl.NC(=O)[C@@H](N)Cc1ccc(O)cc1` [tyrosinamide, L-Tyrosinamide HCl], in data set [2], the “collagen production (collagen levels secreted into the media)” value is listed as “enhanced the collagen levels”.

On to `CC(C)[C@H](N)C(N)=O.Cl` [valinamide, L-Valinamide HCl], for which the “collagen production (collagen levels secreted into the media)” value in data set [2] is recorded as “enhanced the collagen levels”.

Turning to madecassoside [reference compound], the collagen production result in data set [2] (HDF, 10 μM) is given as “no significant effect”. In addition, in data set [2] (HDF, non-cytotoxic concentrations (FIG. 10b)), the “concentrations at which collagen production increased” value was found to be 100 µM.
